Each structure is given as a SMILES string.

The first assay deals with T1, hTSHR (Homo sapiens, UniProt P16473).
T1 construct: expressed in transfected cells
T1 sequence (P16473 21-764): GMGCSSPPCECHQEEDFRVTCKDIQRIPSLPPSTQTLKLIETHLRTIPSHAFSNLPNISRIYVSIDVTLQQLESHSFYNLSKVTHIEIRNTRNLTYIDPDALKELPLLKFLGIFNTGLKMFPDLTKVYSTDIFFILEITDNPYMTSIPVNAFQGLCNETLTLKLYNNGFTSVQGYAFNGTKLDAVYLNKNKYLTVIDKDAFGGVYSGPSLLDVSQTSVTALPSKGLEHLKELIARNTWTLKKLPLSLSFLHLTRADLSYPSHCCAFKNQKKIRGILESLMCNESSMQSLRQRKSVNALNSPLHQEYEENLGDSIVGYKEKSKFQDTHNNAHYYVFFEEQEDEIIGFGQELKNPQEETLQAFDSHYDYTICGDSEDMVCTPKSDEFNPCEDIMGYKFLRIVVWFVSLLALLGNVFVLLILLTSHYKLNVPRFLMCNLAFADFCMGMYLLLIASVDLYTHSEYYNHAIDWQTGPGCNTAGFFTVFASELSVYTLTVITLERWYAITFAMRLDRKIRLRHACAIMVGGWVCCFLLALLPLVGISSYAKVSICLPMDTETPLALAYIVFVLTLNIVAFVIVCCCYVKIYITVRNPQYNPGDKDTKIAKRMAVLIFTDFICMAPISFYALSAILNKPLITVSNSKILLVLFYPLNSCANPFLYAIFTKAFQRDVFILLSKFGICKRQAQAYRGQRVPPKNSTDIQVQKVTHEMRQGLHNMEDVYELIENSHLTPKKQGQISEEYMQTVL
Kind of assay: hTSHR TR-FRET cAMP Assay (inhibition of M22-stimulated cAMP production). The format is cell-based.
Settings: not given
The method in brief:
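Readout was a cAMP HTRF ratio of 655/620 nm after lysis, scaled between the EC80 M22 signal (0% inhibition) and no-agonist vehicle (100%). Frozen induced Expi293F-hTSHR cells saw test compounds (0.5% DMSO) for 15 min at 37 °C before 30 min of M22 stimulation at EC80.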
Background: TR-FRET usually uses a lanthanide donor and a delayed reading to cut background.
`C[C@@H](c1cccc(-c2ccccc2)c1)n1c(=O)cnc2cc(NC(=O)NC(C)(C)C)ccc21` [Example 112, (S)-1-(1-(1-([1,1′-biphenyl]-3-yl)ethyl)-2-oxo-1,2-dihydroquinoxalin-6-yl)-3-(tert-butyl)urea]: the IC50 was in the range of 100 to 1000 nM.

The same assay, now with this note: Expi293F Inducible cells stably expressing hTSHR; cAMP HTRF; stimulated with EC80 of anti-TSHR antibody M22; 15 min compound preincubation, 30 min at 37° C.; read-out: Activity (IC50 bins).
Consider `C[C@@H]1Oc2cc(NC(=O)NC(C)(C)C)ccc2N(Cc2cc(Cl)ccc2C#N)C1=O` [Example 86, (S)-1-(tert-butyl)-3-(4-(5-chloro-2-cyanobenzyl)-2-methyl-3-oxo-3,4-dihydro-2H-benzo[b][1,4]oxazin-7-yl)urea], for which the IC50 is greater than 1000 nM.
Consider `Cc1ccc(C#N)c(CN2C(=O)[C@@H](C)Oc3cc(NC(=O)NC(C)(C)C)ccc32)c1` [Example 87, (R)-1-(tert-butyl)-3-(4-(2-cyano-5-methylbenzyl)-2-methyl-3-oxo-3,4-dihydro-2H-benzo[b][1,4]oxazin-7-yl)urea], for which the IC50 is greater than 1000 nM.
Still for that read-out and setting: in the case of `Cc1ccc(C#N)c(CN2C(=O)[C@H](C)Oc3cc(NC(=O)NC(C)(C)C)ccc32)c1` [Example 88, (S)-1-(tert-butyl)-3-(4-(2-cyano-5-methylbenzyl)-2-methyl-3-oxo-3,4-dihydro-2H-benzo[b][1,4]oxazin-7-yl)urea] it was greater than 1000 nM; in that of `CC(C)(C)NC(=O)Nc1ccc2c(c1)ncc(=O)n2Cc1cccc(Cl)c1` [Example 89, 1-(tert-butyl)-3-(1-(3-chlorobenzyl)-2-oxo-1,2-dihydroquinoxalin-6-yl)urea], 100 to 1000 nM; in that of `CC(C)(C)NC(=O)Nc1ccc2c(c1)ncc(=O)n2Cc1cccc(C(F)(F)F)c1` [Example 90, 1-(tert-butyl)-3-(2-oxo-1-(3-(trifluoro-methyl)benzyl)-1,2-di-hydro-quinoxalin-6-yl)urea], 100 to 1000 nM.
On the same count and under the same terms, the value for `CC(C)(C)NC(=O)Nc1ccc2c(c1)ncc(=O)n2Cc1cccc(OC(F)(F)F)c1` [Example 91, 1-(tert-butyl)-3-(2-oxo-1-(3-(trifluoro-methoxy)benzyl)-1,2-di-hydro-quinoxalin-6-yl)urea] was 100 to 1000 nM; that for `CC(C)(C)NC(=O)Nc1ccc2c(c1)ncc(=O)n2Cc1cccc(CCC(F)(F)F)c1` [Example 92, 1-(tert-butyl)-3-(2-oxo-1-(3-(3,3,3-trifluoro-propyl)benzyl)-1,2-dihydro-quinoxalin-6-yl)urea] was 100 to 1000 nM.
In the case of `CC(C)(C)NC(=O)Nc1ccc2c(c1)ncc(=O)n2Cc1cccc(CCCC(F)(F)F)c1` [Example 93, 1-(tert-butyl)-3-(2-oxo-1-(3-(4,4,4-trifluoro-butyl)benzyl)-1,2-dihydro-quinoxalin-6-yl)urea], the IC50 is less than 100 nM.
On to `CC(C)(C)NC(=O)Nc1ccc2c(c1)ncc(=O)n2Cc1cccc(CC(F)(F)F)c1` [Example 94, 1-(tert-butyl)-3-(2-oxo-1-(3-(2,2,2-trifluoro-ethyl)benzyl)-1,2-dihydro-quinoxalin-6-yl)urea], for which the IC50 lay within 100 to 1000 nM.
On the same count and under the same terms, the value for `CC(C)(C)NC(=O)Nc1ccc2c(c1)ncc(=O)n2Cc1cccc(CCCC(F)(F)F)n1` [Example 95, 1-(tert-butyl)-3-(2-oxo-1-((6-(4,4,4-trifluoro-butyl)pyri-din-2-yl)methyl)-1,2-dihydro-quinoxalin-6-yl)urea] was 100 to 1000 nM.
On the same count and under the same terms, in the case of `CC(C)(C)NC(=O)Nc1ccc2c(c1)ncc(=O)n2Cc1cccc2c1OCCC2` [Example 96, 1-(tert-buty1)-3-(1-(chroman-8-ylmethyl)-2-oxo-1,2-dihydro-quinoxalin-6-yl)urea] it was 100 to 1000 nM.
Still for that read-out and setting: in the case of `CC(C)(C)NC(=O)Nc1ccc2c(c1)ncc(=O)n2Cc1cccc2c1CCCO2` [Example 97, 1-(tert-butyl)-3-(1-(chroman-5-ylmethyl)-2-oxo-1,2-di-hydro-quinoxalin-6-yl)urea] it was 100 to 1000 nM.
For `C[C@@H](c1ccccc1)n1c(=O)cnc2cc(NC(=O)NC(C)(C)C)ccc21` [Example 98, (S)-1-(tert-butyl)-3-(2-oxo-1-(1-phenylethyl)-1,2-dihydroquinoxalin-6-yl)urea], the IC50 is 100 to 1000 nM.
As for `C[C@@H](c1cccc(C(F)(F)F)c1)n1c(=O)cnc2cc(NC(=O)NC(C)(C)C)ccc21` [Example 99, (S)-1-(tert-butyl)-3-(2-oxo-1-(1-(3-(trifluoromethyl)phenyl)ethyl)-1,2-dihydroquinoxalin-6-yl)urea], the IC50 fell in the range of 100 to 1000 nM.
Still for that read-out and setting: the value for `C[C@@H](c1cccc(OC(F)(F)F)c1)n1c(=O)cnc2cc(NC(=O)NC(C)(C)C)ccc21` [Example 100, (S)-1-(tert-butyl)-3-(2-oxo-1-(1-(3-(trifluoromethoxy)phe-nyl)ethyl)-1,2-dihydroquinoxalin-6-yl)urea] was less than 100 nM; that for `C[C@@H](c1cc(Cl)cc(Cl)c1)n1c(=O)cnc2cc(NC(=O)NC(C)(C)C)ccc21` [Example 101, (S)-1-(tert-butyl)-3-(1-(1-(3,5-dichlorophenyl)ethyl)-2-oxo-1,2-dihydroquinoxalin-6-yl)urea] was 100 to 1000 nM; that for `C[C@@H](c1cccc(CC(F)(F)F)c1)n1c(=O)cnc2cc(NC(=O)NC(C)(C)C)ccc21` [Example 102, (S)-1-(tert-butyl)-3-(2-oxo-1-(1-(3-(2,2,2-trifluoroethyl)phe-nyl)ethyl)-1,2-dihydroquinoxalin-6-yl)urea] was 100 to 1000 nM.
On the same count and under the same terms, the value for `C[C@@H](c1cccc(C(F)(F)F)n1)n1c(=O)cnc2cc(NC(=O)NC(C)(C)C)ccc21` [Example 103, (S)-1-(tert-butyl)-3-(2-oxo-1-(1-(6-(tri-fluoromethyl)pyridin-2-yl)ethyl)-1,2-dihydroquinoxalin-6-yl)urea] was 100 to 1000 nM; that for `C[C@@H](c1cc(OC(F)(F)F)ccc1F)n1c(=O)cnc2cc(NC(=O)NC(C)(C)C)ccc21` [Example 104, (S)-1-(tert-butyl)-3-(1-(1-(2-fluoro-5-(trifluoromethoxy)phe-nyl)ethyl)-2-oxo-1,2-dihydroquinoxalin-6-yl)urea] was 100 to 1000 nM.
Still for that read-out and setting: in the case of `C[C@@H](c1ccc(F)c(OC(F)(F)F)c1)n1c(=O)cnc2cc(NC(=O)NC(C)(C)C)ccc21` [Example 105, (S)-1-(tert-buty1)-3-(1-(1-(4-fluoro-3-(trifluoromethoxy)phe-nyl)ethyl)-2-oxo-1,2-dihydroquinoxalin-6-yl)urea] it was less than 100 nM; in that of `C[C@@H](c1cccc(OC(F)(F)F)n1)n1c(=O)cnc2cc(NC(=O)NC3(C)CCC3)ccc21` [Example 106, (S)-1-(1-methylcyclobutyl)-3-(2-oxo-1-(1-(6-(trifluoromethoxy)pyri-din-2-yl)ethyl)-1,2-dihydroquinoxalin-6-yl)urea], 100 to 1000 nM.
In the case of `CC(C)CCc1cccc([C@H](C)n2c(=O)cnc3cc(NC(=O)NC(C)(C)C)ccc32)c1` [Example 107, (S)-1-(tert-butyl)-3-(1-(1-(3-isopentylphenyl)ethyl)-2-oxo-1,2-dihydroquinoxalin-6-yl)urea], the IC50 was 100 to 1000 nM.
The same measure, in the same setting: in the case of `C[C@@H](c1cccc(CCCC(F)(F)F)c1)n1c(=O)cnc2cc(NC(=O)NC(C)(C)C)ccc21` [Example 108, (S)-1-(tert-butyl)-3-(2-oxo-1-(1-(3-(4,4,4-trifluorobutyl)phenyl)ethyl)-1,2-dihydroquinoxalin-6-yl)urea] it was 100 to 1000 nM; in that of `C[C@@H](c1cccc(OCCC(F)(F)F)c1)n1c(=O)cnc2cc(NC(=O)NC(C)(C)C)ccc21` [Example 109, (S)-1-(tert-butyl)-3-(2-oxo-1-(1-(3-(3,3,3-trifluoropropoxy)phenyl)ethyl)-1,2-dihydroquinoxalin-6-yl)urea], 100 to 1000 nM; in that of `C[C@@H](c1cccc(CCOC(F)(F)F)c1)n1c(=O)cnc2cc(NC(=O)NC(C)(C)C)ccc21` [Example 110, (S)-1-(tert-butyl)-3-(2-oxo-1-(1-(3-(2-(tri-fluoromethoxy)ethyl)phenyl)ethyl)-1,2-dihydroquinoxalin-6-yl)urea], 100 to 1000 nM.
As to `C[C@@H](c1cccc(OC2CCCC2)c1)n1c(=O)cnc2cc(NC(=O)NC(C)(C)C)ccc21` [Example 111, (S)-1-(tert-butyl)-3-(1-(1-(3-(cyclo-pentyloxy)phenyl)ethyl)-2-oxo-1,2-dihydroquinoxalin-6-yl)urea], the IC50 is greater than 1000 nM.
For `C[C@@H](c1cccc(C#CC(C)(C)O)c1)n1c(=O)cnc2cc(NC(=O)NC(C)(C)C)ccc21` [Example 113, (S)-1-(tert-butyl)-3-(1-(1-(3-(3-hydroxy-3-methylbut-1-yn-1-yl)phenyl)ethyl)-2-oxo-1,2-dihydroquinoxalin-6-yl)urea], the IC50 is greater than 1000 nM.
Turning to `C[C@@H](c1cccc(Oc2ccccc2)c1)n1c(=O)cnc2cc(NC(=O)NC(C)(C)C)ccc21` [Example 114, (S)-1-(tert-butyl)-3-(2-oxo-1-(1-(3-phenoxyphenyl)ethyl)-1,2-dihydroquinoxalin-6-yl)urea], the IC50 lay within 100 to 1000 nM.
Same read-out and setting: in the case of `C[C@@H](c1cccc(OC2CCCCC2)c1)n1c(=O)cnc2cc(NC(=O)NC(C)(C)C)ccc21` [Example 115, (S)-1-(tert-butyl)-3-(1-(1-(3-(cyclohexyloxy)phenyl)ethyl)-2-oxo-1,2-dihydroquinoxalin-6-yl)urea] it was 100 to 1000 nM; in that of `C[C@@H](c1cccc(CCC(C)(C)O)c1)n1c(=O)cnc2cc(NC(=O)NC(C)(C)C)ccc21` [Example 116, (S)-1-(tert-butyl)-3-(1-(1-(3-(3-hydroxy-3-methylbutyl)phenyl)ethyl)-2-oxo-1,2-dihydroquinoxalin-6-yl)urea], greater than 1000 nM; in that of `C[C@@H](c1cccc(OCC2CCOCC2)c1)n1c(=O)cnc2cc(NC(=O)NC(C)(C)C)ccc21` [Example 117, (S)-1-(tert-butyl)-3-(2-oxo-1-(1-(3-((tetrahydro-2H-pyran-4-yl)methoxy)phenyl)eth-yl)-1,2-dihydroquinoxalin-6-yl)urea], greater than 1000 nM.
The same measure, in the same setting: the value for `C[C@@H](c1cccc(CCCC(C)(C)O)c1)n1c(=O)cnc2cc(NC(=O)NC(C)(C)C)ccc21` [Example 118, (S)-1-(tert-butyl)-3-(1-(1-(3-(4-hydroxy-4-methylpentyl)phenyl)ethyl)-2-oxo-1,2-dihydroquinoxalin-6-yl)urea] was greater than 1000 nM.

Broadly, the IC50 is the concentration that inhibits the measured activity by half.

(Values after patent publication US20260365628A1, “SUBSTITUTED 3,4-DIHYDROQUINOLINONE INHIBITORS OF TSHR” (Septerna, Inc., priority 2022, published 2026).)
